Measurements published in patent US5922891A, “2-substituted 1,8-dihydroxy-9(10H)-anthracenone pharmaceuticals” (priority 1997, dated 1999).
pIC50: −log10 of the molar value.

Legend:
5-LO in bovine PMNL = biological target: T1, 5-LO in bovine PMNL (Bos taurus, UniProt F1MQ78); assay: Inhibition of 5-lipoxygenase (5-HETE and LTB4 biosynthesis) in Ca-ionophore-stimulated bovine PMNL; format: cell-based; settings: N = 3 or more
T1 construct: The purified PMNLs were suspended at a concentration of; endogenous in cells; host or cells: polymorphonuclear leukocytes isolated from bovine blood
T1 sequence (F1MQ78 1-674): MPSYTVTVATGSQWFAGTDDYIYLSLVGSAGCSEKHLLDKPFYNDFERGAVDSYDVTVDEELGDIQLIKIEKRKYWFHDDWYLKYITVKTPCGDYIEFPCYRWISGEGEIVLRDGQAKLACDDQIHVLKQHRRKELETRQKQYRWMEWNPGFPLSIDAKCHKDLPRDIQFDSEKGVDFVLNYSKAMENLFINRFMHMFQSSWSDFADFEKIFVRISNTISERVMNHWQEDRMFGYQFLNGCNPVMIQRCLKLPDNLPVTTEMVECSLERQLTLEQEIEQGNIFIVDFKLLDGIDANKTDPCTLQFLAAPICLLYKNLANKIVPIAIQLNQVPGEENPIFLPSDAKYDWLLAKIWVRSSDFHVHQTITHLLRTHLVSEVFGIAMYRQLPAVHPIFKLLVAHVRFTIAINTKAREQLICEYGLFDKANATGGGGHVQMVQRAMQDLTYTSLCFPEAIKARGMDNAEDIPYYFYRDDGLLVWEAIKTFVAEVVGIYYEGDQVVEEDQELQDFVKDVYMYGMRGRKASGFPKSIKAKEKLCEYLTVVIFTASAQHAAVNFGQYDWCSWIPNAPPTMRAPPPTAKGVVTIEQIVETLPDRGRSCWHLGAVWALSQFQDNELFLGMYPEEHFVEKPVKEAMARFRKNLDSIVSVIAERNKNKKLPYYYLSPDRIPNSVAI
Experimental: Briefly, PMNLs were prepared from sodium EDTA-anticoagulated bovine blood, essentially as described by Walstra, P. et al., (Biochem. Biophys. Acta, 795:499-503 (1984)). Contaminating platelets were removed by repeated centrifugations at 100 g for 20 minutes. […] Cell counts were conducted with a Sysmex micro cell counter CC-130. Preincubation was performed with 2.4 ml of the suspension and 10 μl of a DMSO stock solution of test compounds at the desired concentrations in phosphate buffered saline (PBS) or vehicle control (DMSO at final concentration of 0.4%) for 15 minutes at 37° C. in a shaking water bath at 50 rpm. […] The incubation mixture was held on ice bath for 20 minutes and then centrifuged at 4000 g for 5 minutes at 0° C. The supernatant was diluted with 5 ml of water and passed through a prewashed (10 ml of methanol and 5 ml of water, sequentially) octadecylsilane reversed phase cartridge (Baker). The eicosanoids were eluted with 3 ml of methanol, diluted with 3 ml of water and subjected to reversed phase HPLC analysis using a 250×4 mm column packed with Nucleosil C18 (7 μm particles; Bischoff, Leonberg, Germany). The isocratic elution conditions of LTB4 were tetrahydrofuran (THF)/methanol/water/acetic acid (25+30+45+0.1), adjusted to pH 5.5 with concentrated NH3, at a flow rate of 0.9 ml/min (Kontron 420 pump), monitored at 280 nm with a Kontron 735 LC UV detector. 5-HETE was monitored at 232 nm using methanol/water/acetic acid (77+23+0.1), pH 5.5 and a flow rate 1.0 ml/min. Data were recorded on a MacLab data acquisition system (WissTech, Germany) and analysis was performed using the application Peaks on an Apple Macintosh Quadra 700 computer. Integrated areas of the peaks were compared to a PGB2 internal standard and to external standards of authentic samples. Molar absorption coefficients of Samuelsson et al., Borgeat, P. and B. Samuelsson, (Proc. Natl. Acad. Sci. USA, 76:2148-2152 (1979)), were used for making calculations. Inhibition was calculated by a comparison of the mean value of test compound (n=3) with control (n=6-8) activity: (1-test compound/control)×100.
See Walstra, P. et al., Biochem Biophys. Acta, 795:499-503 (1984); and Dannhardt et al. J. Pharm. Pharmacol., 44:419-424 (1992). […] (Schroder, J. M., J. Invest. Dermatol., 87:624-629 (1986); Tanzer, et al., Arch. Pharm. (Weinheim), 324:841-846 (1991)).

HaCaT cells = assay: Antiproliferative activity against HaCaT cells (human keratinocyte cell line); format: cell-based; settings: 48 h, read-out: AA IC50 (antiproliferative activity)
Experimental: HaCaT cells were grown in Dulbecco's modified Eagle's medium (DMEM, No. 041-11954A, Gibco) supplemented with 10% fetal calf serum, penicillin (100 U/mL), and streptomycin (100 μg/mL) in a humidified incubator containing 8% CO2 at 37° C. Cells (2.5·10^4 /1.1 ml per well) were seeded on 24-well multidishes and grown in DMEM. After 24 hours of growth, the medium was replaced with fresh medium and a test compound (0.1-5 μM) was added from freshly made stock solutions, which were prepared in DMSO and diluted with DMEM. The final concentration of DMSO in the culture medium was 0.2%. Controls were performed using DMSO or medium alone. Forty-eight hours after addition of a test compound to the culture, the medium was removed and each well was rinsed with phosphate-buffered saline (PBS, 100 μL). The cells were then incubated with sterile 0.5% trypsin, 0.2% EDTA in PBS for 20 minutes at 37° C. The detached cells from each well were suspended in DMEM and dispersed as single cells by gentle pipetting through an Eppendorf pipette. Cell growth was determined directly by counting the keratinocytes on a Neubauer counting chamber using phase contrast microscopy. Inhibition of cell proliferation was calculated by a comparison of the mean value of the test compound (N=3) with the control (N=6-8) activity: (1-test compound/control)×100.

[1] = Deoxyribose degradation as a measure of hydroxyl radical formation; format: biochemical; settings: 75 μM test compound; controls < 0.1
Experimental: ^c Deoxyribose degradation as a measure of hydroxyl radical formation
Indicated values are μmoles of malondialdehyde per mmole of deoxyribos
released by 75 μM test compound (controls < 0.1).
Degradation of deoxyribose provides a measurement of the amount of hydroxyl radical formation caused by the test compounds. The assay used to determine degradation of 2-deoxy-D-ribose followed generally the procedures of Gutteridge, J. M. C., Biochem. J., 224: 761-767 (1984) and Laughton, et al., Biochem. Pharmacol., 38: 2859-2865 (1989). The following reagents were added to glass tubes in the order and at the final concentrations listed. 0.3 mL kH2 PO4 --KOH buffer, pH 7.4 (30 mM), 0.2 ml double distilled H2 O, 0.2 ml 2-deoxy-D-ribose (2 mM), 0.2 ml FeCl3.6H2 O (0.1 mM), 0.1 ml 2-substituted anthracenone ([…]). Stock solutions of each of the 2-substituted anthracenone compounds were made up fresh before use. Appropriate blanks and controls using an acetronitrile vehicle were performed.
Final reaction volumes were standardized to 1.0 ml. The reaction mixtures were incubated for 2 hours at 37° C. in a shaking water bath at 50 rpm. 1 ml of 2.8% (w/v) trichloracetic acid and 1 ml of 1% (w/v in 0.05 N NaOH) 2-thiobarbituric acid (TBA) were added, and the samples were heated at 100° C. for 15 minutes and then cooled in an ice bath (5 minutes). 2 ml of each reaction mixture was treated with 0.05 ml of 36% (w/v) HCl and 2 of 1-butanol, followed by vigorous shaking with a vortex mixer (Heidolph) for 15 seconds. The organic layer was separated by centrifugation at 3000 rpm (15 minutes) and absorbance at 532 nm was measured against butanol. Calibration was performed using a malondialdehyde (MDA) standard prepared by hydrolysis of 1,1,3,3-tetraethoxypropane (Gutteridge, J. M. C., Anal. Biochem., 69: 518-526 (1975). TBA reactive material was expressed in terms of μmol MDA per μmol deoxyribose. The results of the assay are provided in Table I.

[2] = Inhibition of AAPH-induced lipid peroxidation in bovine brain phospholipid liposomes; format: biochemical; settings: NDGA used as the standard; footnote d; read-out: LPO IC50 of the standard
Experimental: Phospholipids were prepared essentially as described by Gutteridge, J. M. C., (Anal. Biochem., 82: 76-82 (1977)). Bovine brain tissue was cooled on ice, freed from blood vessels and washed repeatedly with 0.15 M NaCl, pH 7.4. The tissue was cut into pieces and then macerated with an ultra-turrax, passed through a fine-meshed sieve, and extracted four times with four times the volume of acetone. The extraction mixture was filtered by suction to remove the acetone, the residue dried under vacuum, and then repeatedly extracted with petroleum ether (40-60) using twice the volume of the original brain homogenate. The combined extracts were filtered, dried at 45° C., and dissolved in ether (one fifth the original brain volume). The mixture was treated with five times the volume of acetone, and the resulting precipitate was collected by suction-filtration, dried and stored under N2 at -20° C. in the dark. Bovine brain phospholipids were weighed into glass tubes and shaken in a vortex mixer (Heidolph) in the presence of five small glass beads (.phi. 4 mm) for 1 minute. The phospholipids were suspended in 0.15 M NaCl, pH 7.4, to a final concentration of 5 mg/ml. The mixture was purged with N2 for 1 minute and vigorously dispersed in a vortex mixer for 5 minutes. The liposomes were allowed to swell for 1 hour at 4° C., and vesicles with a mean size of 1-10 μm were obtained according to the method of Bangham, et al., (J. Mol. Biol., 13:238-252 (1965). The liposomes were stimulated with the azo initiator 2 2'-azobis (2-amidinopropane) hydrochloride according to the method of Gutteridge, J. M. C., (Anal. Biochem. 82:76-82 (1977)).
The following reagents were added to the glass tubes containing stimulating bovine brain phospholipid piposomes in the order and at the final concentrations listed: 0.3 ml HK2 PO4 --KOH buffer, pH 7.4 (30 mM), 0.29 ml double distilled H2 O, 0.2 ml liposomes (1 mg/ml), 0.2 ml FeCl3.H2 O (0.1 mM), 0.01 ml 2-substituted anthracenone compound of the invention (variable concentrations).
Appropriate blanks and controls using the vehicle (acetone) were conducted. The final reaction volumes were standardized to 1.0 ml. The reaction mixtures were incubated for 1 hour at 37° C. in a shaking water bath. […] of 20% (w/v) BHT, 0.5 ml 25% (w/v) HCl and 0.5 ml of 1% 2-thiobarbituric acid were added and the samples were heated at 100° C. for 15 minutes and then cooled in an ice bath (5 minutes). 2 ml of 1-butanol were added and the mixtures were vigorously shaken in a vortex mixer (Heidolph) for 15 seconds. The organic layer was separated by centrifugation at 3000 rpm (15 minutes) and absorbance at 532 nm was measured against butanol.

| SMILES | pIC50 (5-LO in bovine PMNL) | pIC50 (HaCaT cells) | DD (deoxyribose degradation, malondialdehyde released) [1] | pIC50 [2] |
| --- | --- | --- | --- | --- |
| COC(=O)Cc1ccc2c(c1O)C(=O)c1c(O)cccc1C2 [IB, Methyl 9,10-Dihydro-1,8-dihydroxy-9-oxo-2-anthracenacetate] | < 4.52 | – | – | – |
| COC(=O)CCc1ccc2c(c1O)C(=O)c1c(O)cccc1C2 [IIB, Methyl 3-(9,10-Dihydro-1,8-dihydroxy-9-oxo-2-anthracene) propionate] | < 4.52 | – | – | – |
| COC(=O)CCCc1ccc2c(c1O)C(=O)c1c(O)cccc1C2 [IIIB, Methyl 4-(9,10-Dihydro-1,8-dihydroxy-9-oxo-2-anthracene) butanoate] | < 4.52 | 5.96 | – | – |
| COC(=O)C(Cc1ccccc1)c1ccc2c(c1O)C(=O)c1c(O)cccc1C2 (centres unmarked) [IXB, Methyl 2-(9,10-Dihydro-1,8-dihydroxy-9-oxo-2-anthracene)-3-phenylpropionate] | < 4.52 | 5.74 | 0.01 ± 0.00 μmol of MDA/mmol | – |
| COc1c(OC)c(OC(C)=O)c2cc(Cl)ccc2c1OC(C)=O [Ionapalene, reference compound] | 6.30 | 5.49 | – | – |
| CC(Cc1ccc(O)c(O)c1)C(C)Cc1ccc(O)c(O)c1 (centres unmarked) [Nordihydroguaiaretic acid (NDGA), Nordihydroguaiaretic acid, reference compound] | – | – | – | 5.70 |
| O=C(O)CCCCCc1ccc2c(c1O)C(=O)c1c(O)cccc1C2 [VA, 6-(9,10-Dihydro-1,8-dihydroxy-9-oxo-2-anthracene) hexanoic acid] | 4.72 | – | 2.29 ± 0.03 μmol of MDA/mmol | – |
| COC(=O)C(C)c1ccc2c(c1O)C(=O)c1c(O)cccc1C2 (centres unmarked) [VIIB, Methyl 2-(9,10-Dihydro-1,8-dihydroxy-9-oxo-2-anthracene) propionate] | < 4.52 | – | – | – |
| COC(=O)C(CCc1ccccc1)c1ccc2c(c1O)C(=O)c1c(O)cccc1C2 (centres unmarked) [XB, Methyl 2-(9,10-Dihydro-1,8-dihydroxy-9-oxo-2-anthracene)-4-phenylbutanoate] | < 4.52 | – | 0.28 ± 0.03 μmol of MDA/mmol | – |
| O=C(O)c1ccc(Cc2ccc3c(c2O)C(=O)c2c(O)cccc2C3)cc1 [XIA, 4-[(9,10-Dihydro-1,8-dihydroxy-9-oxo-2-anthracene)methyl]benzoic acid, reference compound] | 5.70 | – | – | – |
| COC(=O)c1ccc(Cc2ccc3c(c2O)C(=O)c2c(O)cccc2C3)cc1 [XIB, Methyl 4-[(9,10-Dihydro-1,8-dihydroxy-9-oxo-2-anthracene)methyl]benzoate, reference compound] | < 4.52 | – | – | – |
| COC(=O)c1ccc(C(=O)c2ccc3c(c2O)C(=O)c2c(O)cccc2C3)cc1 [XIIB, Methyl 4-[(9,10-Dihydro-1,8-dihydroxy-9-oxo-2-anthracene)oxomethyl]benzoate] | < 4.52 | 5.74 | 2.07 ± 0.12 μmol of MDA/mmol | – |
